The source of these data is article PMC8151848, “Tambjamines and Prodiginines: Biocidal Activity against Trypanosoma cruzi” (Pharmaceutics, 2021).

The structures appear in SMILES notation. Like-named read-outs stand apart in the source and are kept apart here.

Series [1] concerns epimastigotes of T. cruzi. Kind of series: Epimastigote susceptibility assay (combined therapy with benznidazole). Type of series: cell-based, Trypanosoma cruzi. Particulars: combination of benznidazole with compound at 0.25x IC50. The procedure:
To assess the anti-epimastigote effect of the compounds in combination with benznidazole, fixed concentrations of each compound were added to a 96-well microplate previously filled with serial dilutions of benznidazole (0.06–128 µM). These fixed concentrations were calculated based on the IC50 values previously obtained for each drug and corresponded to 4x IC50, 2x IC50, IC50, 0.75x IC50, 0.5x IC50, 0.25x IC50. Each well was inoculated with 100 µL of the epimastigotes (2.5 × 10^5/mL) obtained from the exponential growth phase and the plates were incubated for 72 h at 28 °C. Drug blanks, medium, and growth wells were included in each assay as controls. Afterward, 50 µL of CPRG diluted in 0.9% Triton X-100 solution were added at a final concentration of 200 µM and the plates were returned to the incubator for another 3 h at 37 °C. After incubation, absorbance was read at 595 nm and the data were analyzed. All experiments were repeated at least two times independently and each combination was tested in duplicate.
The results are expressed as the IC50 values obtained with each drug combination. To evaluate the interaction of benznidazole with these compounds, fractional inhibitory concentration (FIC) values were calculated as follows:
FIC of compound A (FIC A) = IC50 of A in combination/IC50 of A alone; while FIC of compound B (FIC B) = IC50 of B in combination/IC50 of B alone.
Finally, the FIC index (FICi) was calculated as the sum of FICs using the following formula: FICi=FIC A+FIC B
FICi values were interpreted according to the criteria established by Simoes-Silva et al.: FICi ≤ 0.5 indicates synergism; FICi > 0.5 and ≤ 4 indicates an additive interaction (no interaction); and FICi > 4 indicates antagonism.

The test system of series [2] is trypomastigotes/amastigotes of T. cruzi (CLB strain). Nature of the series: Trypomastigote/amastigote susceptibility assay in infected L-929 fibroblasts. The note with it: for IC50: read-out: IC50 (µM) trypomastigote/amastigote growth inhibition, CLB strain, 96 h treatment. Type of series: cell-based, Trypanosoma cruzi. The procedure: This assay was performed in 96-well microplates. Briefly, 4 × 10^3 L-929 fibroblasts were seeded in 80 µl of MEM containing 10% FBS and antibiotics. The plate was placed overnight at 37 °C in a 5% CO2 humidified incubator to allow cell adherence. Afterward, the cells were infected with 20 µL of trypomastigotes (40,000 trypomastigotes/well (4000 mammalian cells)) diluted in the same medium. The cell:parasite ratio was 1:10. Plates were incubated for 2 h at 33 °C and 5% CO2. The medium was then discarded to dispose of nonpenetrated parasites and replaced with 200 µL of MEM without phenol red supplemented with FBS and antibiotics. After 48 h of incubation, the content of the wells was replaced with a fresh medium containing the dilutions of the compounds. The plates were returned to the incubator for an additional 96 h under the same conditions. Wells containing drug blanks, medium, fibroblasts, and untreated infected cells were included in all the plates as controls. An internal control of the reference drug (benznidazole) was also included. Next, 50 µl of substrate CPRG (diluted in 3% Triton X-100 solution) were added at a final concentration of 400 µM. After 18–20 h of incubation at 37 °C, absorbance readings were taken at 595 nm using a scanning multiwell spectrophotometer. All the assays were performed in triplicate and the experiments were run three times in different weeks. The results are expressed as the percentage of trypomastigote/amastigote growth inhibition (% T/A GI value) as follows:(2) %Trypomastigote/Amastigote growth inhibition=100−(AE−AEB)/(AC−ACB) ×100 where AE is the absorbance of the experimental group, AEB the absorbance of the compound blank, AC the absorbance of the control group, and ACB the absorbance of the culture medium blank. The IC50 values (the drug concentration that eliminates 50% of the parasites) were determined for each compound using the GraphPad Prism software.

Series [3] can be described thus: Cytotoxicity assay (resazurin) in L-929 fibroblasts. In kind it is cell-based, mouse. The note with it: mouse, L-929, 16 µM, n = 9, read-out: % Cytotoxicity ± SD. The source says: Mouse L-929 fibroblasts (NCTC clone 929, ECACC 88102702) were used for both drug toxicity and infection assays. Cell line was obtained from Dr. Concepció Soler, Dept. Pathology & Experimental therapeutics, Faculty of Medicine and Health Sciences, University of Barcelona, Spain. Human hepatocarcinoma Hep G2 cells (American Type Culture Collection (ATCC HB-8065)) were employed only in the drug toxicity assays and were obtained from Dr. Neus Agell, Cell Biology Research Group, Faculty of Medicine and Health Sciences, University of Barcelona, Spain.
Cells were seeded by trypsinization in 96-well microplates (L-929: 4 × 10^3 cells/well; Hep G2: 1.5 × 10^4 cells/well) and incubated for 24 h at 37 °C to allow cell attachment. On the following day, the medium was discarded and replaced with a fresh medium containing the different concentrations of the drugs. Hep G2 cells were treated with concentrations of 100, 10, and 1 µM of the different drugs, while L-929 cells were treated with a wider range of concentrations in order to calculate the IC50 value (the drug concentration that inhibits 50% of cell growth). Medium, growth, and drug blanks were used in each test as controls. Plates were incubated again for another 24 h. After treatment, 20 µL of resazurin diluted in 1X phosphate-buffered saline (PBS; Sigma Aldrich) was added at a final concentration of 70 µM. The plates were incubated for another 24 h, after which fluorescence was measured in a microplate reader (FLUOstar OPTIMA, BMG LABTECH GmbH, Ortenberg, Germany) at an excitation wavelength of 530 nm and an emission wavelength of 590 nm. Each concentration was tested in triplicate and the experiments were repeated three times independently. Results indicated the percentage of toxicity (% T value). (3) % Toxicity=100−(AE−AEB)/(AC−ACB)×100 where AE is the absorbance of the experimental group, AEB the absorbance of the drug blank, AC the absorbance of the untreated cells, and ACB the absorbance of the culture medium blank. For the L-929 fibroblasts, the IC50 values (the drug concentration that inhibits 50% of cell growth) were calculated for each compound using the GraphPad Prism software.
(In general: Resazurin is reduced to fluorescent resorufin, in cell work by metabolically active cells.)

Where [4] appears, read: IC50 for L-929 fibroblasts / IC50 for T. cruzi trypomastigotes/amastigotes.
The mark [5] stands for this setting: L-929 fibroblasts (NCTC clone 929).
Setting [6] is: Trypanosoma cruzi, L929, highest concentration assayed (16 µM), n = 9, read-out: % Trypomastigote/Amastigote Growth Inhibition (%T/A GI ± SD).

Turning to `CCCCCC1=C/C(=C/c2[nH]c(-c3ccc[nH]3)cc2OC)N=C1C` [Natural prodigiosin, prodigiosin], in series [1], the FICi is given as 0.81. In addition, the “Selectivity index (SI), Trypomastigotes” value in series [2] (setting [4]) worked out at 50. In addition, the “% Trypomastigote/Amastigote Growth Inhibition (%T/A GI ± SD)” value in series [2] (highest concentration assayed (16 µM), n = 9) is given as 100 ± 0%. Also, in series [2], the IC50 came to 0.1 ± 0.04 µM. Moreover, the cytotoxicity at 24 h, 16 µM in series [3] was found to be 95.8 ± 0.09%.

In the case of `CCc1c(-c2ccc[nH]2)[nH]c(/C=N/c2ccc(C(C)(C)C)cc2)c1C` [MM4], in series [1], the FICi is reported as 0.70. For the same molecule, in series [3] (setting [5]), the cytotoxicity at 24 h, 16 µM came to 64.2 ± 10.5%.

In the case of `CCc1c(-c2ccc[nH]2)[nH]c(/C=N/C2CCCCC2)c1C` [MM3], the FICi in series [1] is listed as 0.79. For the same molecule, the “Selectivity index (SI), Trypomastigotes” value in series [2] (setting [4]) turned out to be 6.42. Moreover, the IC50 in series [2] (Trypanosoma cruzi, L929) was determined as 1.9 ± 0.45 µM. Besides, the inhibition at 16 µM in series [2] (setting [6]) worked out at 97.1 ± 3.01%. Also, the cytotoxicity at 24 h, 16 µM in series [3] (setting [5]) stood at 88.4 ± 2.75%.

For the molecule `CCCCCC1=C/C(=C/c2[nH]c(-c3ccc[nH]3)cc2OC)N=C1C` [Synthetic prodigiosin, prodigiosin], the FICi in series [1] amounted to 0.73. For the same molecule, in series [2] (setting [4]), the “Selectivity index (SI), Trypomastigotes” value is listed as 5.36. Moreover, in series [2] (Trypanosoma cruzi, L929, read-out: % Trypomastigote/Amastigote Growth Inhibition (%T/A GI ± SD)), the inhibition at 16 µM worked out at 100%. In addition, the IC50 in series [2] worked out at 0.57 ± 0.19 µM.

On to `O=C(Cn1ccnc1[N+](=O)[O-])NCc1ccccc1` [Benznidazole, reference compound], for which the “Selectivity index (SI), Trypomastigotes” value in series [2] (setting [4]) came to 779.71. The IC50 in series [2] (Trypanosoma cruzi, L929) stood at 1.76 ± 0.34 µM. For the same molecule, the inhibition at 16 µM in series [2] (setting [6]) stood at 76 ± 5.02%. Further, in series [3] (setting [5]), the cytotoxicity at 24 h, 16 µM came out at 0%.

On to `COC1=CC(c2cc3ccccc3[nH]2)=N/C1=C\c1[nH]c(C)cc1C` [Obatoclax, reference compound], for which, in series [1], the FICi came out at 1.80. Besides, in series [2], the “Selectivity index (SI), Trypomastigotes” value is 2.24. Also, in series [2] (Trypanosoma cruzi, L929), the IC50 worked out at 2.6 ± 0.4 µM. The inhibition at 16 µM in series [2] (setting [6]) turned out to be 88.4 ± 6%. Besides, in series [3] (setting [5]), the cytotoxicity at 24 h, 16 µM came out at 63.5 ± 1.63%.
